Where only a bound is given, the exact number is not on record here.

Data on 16 compounds can be found in patent US20250197372A1 (priority 2020, published 2025).

What all share (assay type): biochemical
Assay [1] addresses T1, recombinant alpha-glucosidase II (murine full-length glucosidase II, alpha and beta subunits, Glu 2) (Mus musculus, UniProt Q8BHN3).
T1 construct: made in house; host or cells: HEK-293T cells transduced with BacMam viruses (75% alpha, 25% beta); protein harvested from culture supernatant
Nature of the assay: Alpha-glucosidase II assay (4-methylumbelliferyl-alpha-D-pyranoside substrate, fluorescence). To be noted: Glucosidase 2; read-out: Glu2 IC50.

The target of assay [2] is recombinant human GAA (acid alpha-glucosidase) (Homo sapiens, UniProt P10253). Nature of the assay: Acid alpha-glucosidase (GAA) assay (4-methylumbelliferyl-alpha-D-pyranoside substrate, fluorescence). A digest of the protocol: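 IC50 from 4-PL curve fit of percent inhibition, based on fluorescence (365/440 nm) of released methylumbelliferone relative to uninhibited enzyme. Compound dilutions and human GAA incubated 60 min, 37 °C, before 20 min substrate reaction at 37 °C, quenched at pH 10.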

Assay [3] concerns the target rat maltase (partially purified alpha-glucosidase from intestinal rat powder). The assay can be described thus: Intestinal alpha-glucosidase assay, maltose substrate (Glucose GO Kit). The method, boiled down: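 Glucose release is the read-out: compounds at multiple dilutions are first held with partially purified rat intestinal alpha-glucosidase for 60 min at 37 °C, after which maltose or sucrose substrate reacts for 30 min at 37 °C before a 5 min 90 °C stop. IC50 comes from a four-parameter logistic fit.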

For assay [4], the target named is T2, recombinant human GBA (beta-glucocerebrosidase) (Homo sapiens, UniProt P04062).
T2 sequence (P04062 40-536): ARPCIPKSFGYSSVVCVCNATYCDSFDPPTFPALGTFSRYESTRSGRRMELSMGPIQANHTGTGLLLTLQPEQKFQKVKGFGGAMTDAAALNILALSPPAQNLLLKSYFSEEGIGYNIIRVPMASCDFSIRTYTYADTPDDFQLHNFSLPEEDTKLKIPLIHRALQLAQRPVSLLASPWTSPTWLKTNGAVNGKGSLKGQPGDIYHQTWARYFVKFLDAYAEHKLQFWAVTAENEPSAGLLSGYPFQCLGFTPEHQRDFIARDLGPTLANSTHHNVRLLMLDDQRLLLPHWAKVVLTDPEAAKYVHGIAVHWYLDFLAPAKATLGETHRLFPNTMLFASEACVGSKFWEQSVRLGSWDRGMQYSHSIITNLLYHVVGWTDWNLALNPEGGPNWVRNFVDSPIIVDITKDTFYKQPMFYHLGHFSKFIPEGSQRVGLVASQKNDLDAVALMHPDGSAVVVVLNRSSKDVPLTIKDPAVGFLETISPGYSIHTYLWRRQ
Nature of the assay: Beta-glucocerebrosidase (GBA, glucosylceramidase) assay (4-methylumbelliferyl-beta-D-pyranoside substrate, fluorescence). A digest of the protocol: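 IC50 by four-parameter fit of percent inhibition, with product fluorescence (365/440 nm) read after a glycine/NaOH pH 10 stop. Compound and commercial recombinant human enzyme were incubated 60 min at 37 °C before a further 60 min at 37 °C with 4-methylumbelliferyl-beta-D-pyranoside substrate.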

The target in assay [5] is rat sucrase (partially purified alpha-glucosidase from intestinal rat powder) (Rattus norvegicus, UniProt P23739). The assay can be described thus: Intestinal alpha-glucosidase assay, sucrose substrate (Glucose GO Kit). A digest of the protocol:
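Partially purified alpha-glucosidase from rat intestinal powder was preincubated 60 min at 37 °C with serial compound dilutions, then given maltose or sucrose and incubated 30 min at 37 °C.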

T1 sequence (O08795 15-521): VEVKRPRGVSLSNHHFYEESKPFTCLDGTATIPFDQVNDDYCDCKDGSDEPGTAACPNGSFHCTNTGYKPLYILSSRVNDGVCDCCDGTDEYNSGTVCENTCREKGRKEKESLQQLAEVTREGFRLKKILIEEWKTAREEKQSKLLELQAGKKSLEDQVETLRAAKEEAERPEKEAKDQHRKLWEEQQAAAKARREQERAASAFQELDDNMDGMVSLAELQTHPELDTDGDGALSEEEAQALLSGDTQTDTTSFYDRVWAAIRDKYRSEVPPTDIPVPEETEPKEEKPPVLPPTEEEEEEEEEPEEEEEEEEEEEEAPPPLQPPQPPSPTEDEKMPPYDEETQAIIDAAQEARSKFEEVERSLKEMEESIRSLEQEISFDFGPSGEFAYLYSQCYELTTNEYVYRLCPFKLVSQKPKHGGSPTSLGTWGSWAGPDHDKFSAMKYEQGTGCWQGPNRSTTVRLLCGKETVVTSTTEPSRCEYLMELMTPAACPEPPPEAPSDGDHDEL
T1 sequence (Q8BHN3 33-944): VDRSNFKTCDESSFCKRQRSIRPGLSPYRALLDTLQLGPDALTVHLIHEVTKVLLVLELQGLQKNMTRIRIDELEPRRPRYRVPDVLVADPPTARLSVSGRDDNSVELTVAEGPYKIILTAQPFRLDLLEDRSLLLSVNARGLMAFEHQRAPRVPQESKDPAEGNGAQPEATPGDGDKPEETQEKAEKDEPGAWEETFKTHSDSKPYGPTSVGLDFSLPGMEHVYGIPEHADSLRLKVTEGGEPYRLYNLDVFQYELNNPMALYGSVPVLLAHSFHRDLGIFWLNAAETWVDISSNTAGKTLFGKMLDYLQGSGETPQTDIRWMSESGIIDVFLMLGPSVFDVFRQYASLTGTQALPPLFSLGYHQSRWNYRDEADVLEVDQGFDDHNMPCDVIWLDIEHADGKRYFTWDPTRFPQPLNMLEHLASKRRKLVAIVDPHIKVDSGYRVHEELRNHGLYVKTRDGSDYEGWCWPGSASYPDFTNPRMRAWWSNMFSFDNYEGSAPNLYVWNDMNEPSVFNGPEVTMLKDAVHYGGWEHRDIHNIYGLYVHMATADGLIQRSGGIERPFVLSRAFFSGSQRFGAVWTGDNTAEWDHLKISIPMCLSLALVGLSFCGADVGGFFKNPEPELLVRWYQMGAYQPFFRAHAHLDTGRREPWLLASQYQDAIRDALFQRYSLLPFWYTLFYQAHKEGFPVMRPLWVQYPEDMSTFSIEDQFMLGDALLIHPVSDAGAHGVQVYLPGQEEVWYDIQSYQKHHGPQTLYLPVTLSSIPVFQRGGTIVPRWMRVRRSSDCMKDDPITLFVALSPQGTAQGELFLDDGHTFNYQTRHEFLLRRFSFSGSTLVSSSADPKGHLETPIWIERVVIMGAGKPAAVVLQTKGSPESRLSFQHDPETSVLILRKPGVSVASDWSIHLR
rat sucrase (partially purified alpha-glucosidase from intestinal rat powder), sequence (P23739 whole entry): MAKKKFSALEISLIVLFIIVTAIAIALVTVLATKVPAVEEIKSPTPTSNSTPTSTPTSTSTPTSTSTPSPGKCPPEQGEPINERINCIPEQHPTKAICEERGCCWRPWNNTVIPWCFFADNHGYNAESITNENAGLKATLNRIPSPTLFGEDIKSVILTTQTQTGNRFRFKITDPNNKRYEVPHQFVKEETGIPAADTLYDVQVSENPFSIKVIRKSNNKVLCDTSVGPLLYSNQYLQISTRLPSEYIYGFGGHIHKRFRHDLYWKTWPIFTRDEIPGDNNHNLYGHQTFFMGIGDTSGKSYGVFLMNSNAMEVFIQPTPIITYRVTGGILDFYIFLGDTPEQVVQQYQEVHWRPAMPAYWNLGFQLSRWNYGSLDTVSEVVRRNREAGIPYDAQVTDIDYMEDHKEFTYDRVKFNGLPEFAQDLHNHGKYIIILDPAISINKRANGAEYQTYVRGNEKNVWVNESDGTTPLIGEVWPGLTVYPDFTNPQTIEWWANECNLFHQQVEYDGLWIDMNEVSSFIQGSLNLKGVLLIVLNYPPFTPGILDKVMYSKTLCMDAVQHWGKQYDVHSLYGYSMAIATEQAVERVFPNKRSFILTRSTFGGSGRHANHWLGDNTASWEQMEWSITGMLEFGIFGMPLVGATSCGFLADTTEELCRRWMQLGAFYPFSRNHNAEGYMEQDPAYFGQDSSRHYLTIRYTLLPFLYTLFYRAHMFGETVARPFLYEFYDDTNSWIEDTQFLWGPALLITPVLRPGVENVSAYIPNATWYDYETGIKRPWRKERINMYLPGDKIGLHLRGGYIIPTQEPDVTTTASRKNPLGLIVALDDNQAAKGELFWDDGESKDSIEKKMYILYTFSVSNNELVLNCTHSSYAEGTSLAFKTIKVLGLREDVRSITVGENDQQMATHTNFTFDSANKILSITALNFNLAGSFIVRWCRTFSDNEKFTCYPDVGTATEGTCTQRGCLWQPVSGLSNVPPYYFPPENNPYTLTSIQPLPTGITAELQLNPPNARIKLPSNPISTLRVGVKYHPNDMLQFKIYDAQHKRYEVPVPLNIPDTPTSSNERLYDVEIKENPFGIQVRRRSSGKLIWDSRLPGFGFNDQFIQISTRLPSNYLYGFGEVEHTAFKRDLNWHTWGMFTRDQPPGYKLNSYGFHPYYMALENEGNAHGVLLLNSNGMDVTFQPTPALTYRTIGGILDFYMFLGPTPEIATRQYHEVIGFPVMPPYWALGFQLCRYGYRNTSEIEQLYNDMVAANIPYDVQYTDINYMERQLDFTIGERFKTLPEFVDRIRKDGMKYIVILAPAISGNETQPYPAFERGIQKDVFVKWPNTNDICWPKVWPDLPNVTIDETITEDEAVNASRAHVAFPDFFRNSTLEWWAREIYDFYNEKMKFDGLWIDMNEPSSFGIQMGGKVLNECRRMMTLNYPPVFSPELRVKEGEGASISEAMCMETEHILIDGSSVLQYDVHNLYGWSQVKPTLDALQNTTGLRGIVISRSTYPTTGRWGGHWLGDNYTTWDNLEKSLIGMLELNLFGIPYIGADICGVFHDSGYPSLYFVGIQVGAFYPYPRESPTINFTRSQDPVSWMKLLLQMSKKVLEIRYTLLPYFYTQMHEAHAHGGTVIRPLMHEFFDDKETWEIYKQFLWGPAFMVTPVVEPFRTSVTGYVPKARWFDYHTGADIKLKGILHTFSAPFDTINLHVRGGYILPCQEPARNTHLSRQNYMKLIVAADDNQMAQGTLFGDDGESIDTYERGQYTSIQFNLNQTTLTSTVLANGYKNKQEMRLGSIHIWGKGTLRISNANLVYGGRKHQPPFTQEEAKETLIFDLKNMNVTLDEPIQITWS

One may read the IC50 as the midpoint of a concentration-inhibition curve. `[N-]=[N+]=Nc1ccc(NCCc2cc(CCN3C[C@H](O)[C@@H](O)[C@H](O)[C@H]3CO)ccc2C2CCCCC2)c([N+](=O)[O-])c1` [Compound 1171, (2R,3R,4R,5S)-1-[2-(3-{2-[(4-azido-2-nitrophenyl)amino]ethyl}-4-cyclohexylphenyl)ethyl]-2-(hydroxymethyl)piperidine-3,4,5-triol]: the IC50 in assay [1] is 1010 nM; in assay [2], 2080 nM; in assay [3], 5660 nM; in assay [4], 204 nM; in assay [5], 10700 nM.

Regarding `[N-]=[N+]=Nc1ccc(NCCc2ccc(CCN3C[C@H](O)[C@@H](O)[C@H](O)[C@H]3CO)c3c2OCCO3)c([N+](=O)[O-])c1` [Compound 1173, (2R,3R,4R,5S)-1-[2-(8-{2-[(4-azido-2-nitrophenyl)amino]ethyl}-2,3-dihydro-1,4-benzodioxin-5-yl)ethyl]-2-(hydroxymethyl)piperidine-3,4,5-triol], the IC50 in assay [1] is 666 nM; in assay [2] it was 1800 nM; in assay [3], 48 nM; in assay [4], 5320 nM; in assay [5], 456 nM.

In the case of `[N-]=[N+]=Nc1ccc(NCc2cc(CCN3C[C@H](O)[C@@H](O)[C@H](O)[C@H]3CO)cs2)c([N+](=O)[O-])c1` [Compound 1174, (2R,3R,4R,5S)-1-[2-(5-{[(4-azido-2-nitrophenyl)amino]methyl}thiophen-3-yl)ethyl]-2-(hydroxymethyl)piperidine-3,4,5-triol], the IC50 in assay [1] is under 1 nM; in assay [2], 230 nM; in assay [3], under 1 nM; in assay [4] it was 805 nM; in assay [5], 1 nM.

Consider `[N-]=[N+]=Nc1ccc(NCCn2cc(CCN3C[C@H](O)[C@@H](O)[C@H](O)[C@H]3CO)c3ccccc32)c([N+](=O)[O-])c1` [Compound 1177, (2R,3R,4R,5S)-1-[2-(1-{2-[(4-azido-2-nitrophenyl)amino]ethyl}-1H-indol-3-yl)ethyl]-2-(hydroxymethyl)piperidine-3,4,5-triol], for which the IC50 was found to be 65 nM in assay [1]; 5540 nM in assay [2]; 32 nM in assay [3]; 3320 nM in assay [4]; 883 nM in assay [5].

In the case of `[N-]=[N+]=Nc1ccc(NCCc2cc(CCN3C[C@H](O)[C@@H](O)[C@H](O)[C@H]3CO)cs2)c([N+](=O)[O-])c1` [Compound 1179, (2R,3R,4R,5S)-1-[2-(5-{2-[(4-azido-2-nitrophenyl)amino]ethyl}thiophen-3-yl)ethyl]-2-(hydroxymethyl)piperidine-3,4,5-triol], the half-inhibitory concentration (IC50) is under 1 nM in assay [1]; 692 nM in assay [2]; 1 nM in assay [3]; 380 nM in assay [4]; 181 nM in assay [5].

For `COc1cc(CN2CCCO2)cc(NCCCCCCN2C[C@H](O)[C@@H](O)[C@H](O)[C@H]2CO)c1` [Compound 1182, (2R,3R,4R,5S)-2-(hydroxymethyl)-1-[6-({3-methoxy-5-[(1,2-oxazolidin-2-yl)methyl]phenyl}amino)hexyl]piperidine-3,4,5-triol], the IC50 in assay [1] amounted to 2 nM; in assay [2] it was 33 nM; in assay [3], 26 nM; in assay [4], 6130 nM; in assay [5], 179 nM.

With `OC[C@@H]1[C@@H](O)[C@H](O)[C@@H](O)CN1CCCCCCNc1cc(Cl)cc(CN2CCCO2)c1` [Compound 1183, (2R,3R,4R,5S)-1-[6-({3-chloro-5-[(1,2-oxazolidin-2-yl)methyl]phenyl}amino)hexyl]-2-(hydroxymethyl)piperidine-3,4,5-triol], the IC50 in assay [1] was found to be 4 nM; in assay [2], 90 nM; in assay [3], 15 nM; in assay [4] it was 5620 nM; in assay [5], 94 nM.

For `O=Cc1cc(-c2ncccn2)ccc1NCCCCCCN1C[C@H](O)[C@@H](O)[C@H](O)[C@H]1CO` [Compound 1184, 5-(pyrimidin-2-yl)-2-({6-[(2R,3R,4R,5S)-3,4,5-trihydroxy-2-(hydroxymethyl)piperidin-1-yl]hexyl}amino)benzaldehyde], the IC50 in assay [1] amounted to 1 nM; in assay [2], 48 nM; in assay [3], 6 nM; in assay [4], 950 nM; in assay [5] it was 65 nM.

For the compound `[N-]=[N+]=Nc1ccc(NCCc2ccc(CCN3C[C@H](O)[C@@H](O)[C@H](O)[C@H]3CO)s2)c([N+](=O)[O-])c1` [Compound 1186, (2R,3R,4R,5S)-1-[2-(5-{2-[(4-azido-2-nitrophenyl)amino]ethyl}hiophen-2-yl)ethyl]-2-(hydroxymethyl)piperidine-3,4,5-triol], the IC50 in assay [1] was found to be 1 nM; in assay [2], 263 nM; in assay [3], 5 nM; in assay [4], 1280 nM; in assay [5], 175 nM.

With `[N-]=[N+]=Nc1ccc(NCCc2cncc(CCN3C[C@H](O)[C@@H](O)[C@H](O)[C@H]3CO)n2)c([N+](=O)[O-])c1` [Compound 1187, (2R,3R,4R,5S)-1-[2-(6-{2-[(4-azido-2-nitrophenyl)amino]ethyl}pyrazin-2-yl)ethyl]-2-(hydroxymethyl)piperidine-3,4,5-triol], the half-maximal inhibitory concentration (IC50) worked out at 3 nM in assay [1]; 615 nM in assay [2]; 1200 nM in assay [3]; 16400 nM in assay [4]; 2050 nM in assay [5].

As for `[N-]=[N+]=Nc1ccc(NCCc2nccc(CCN3C[C@H](O)[C@@H](O)[C@H](O)[C@H]3CO)n2)c([N+](=O)[O-])c1` [Compound 1188, (2R,3R,4R,5S)-1-[2-(2-{2-[(4-azido-2-nitrophenyl)amino]ethyl}pyrimidin-4-yl)ethyl]-2-(hydroxymethyl)piperidine-3,4,5-triol], the IC50 in assay [1] stood at 1140 nM; in assay [2] it was 838 nM; in assay [3], 164 nM; in assay [4], 9050 nM; in assay [5], 783 nM.

With `[N-]=[N+]=Nc1ccc(NCCc2cnn(CCN3C[C@H](O)[C@@H](O)[C@H](O)[C@H]3CO)c2)c([N+](=O)[O-])c1` [Compound 1191, (2R,3R,4R,5S)-1-[2-(4-{2-[(4-azido-2-nitrophenyl)amino]ethyl}-1H-pyrazol-1-yl)ethyl]-2-(hydroxymethyl)piperidine-3,4,5-triol], the IC50 was 20300 nM in assay [1]; 2740 nM in assay [2]; 171 nM in assay [3]; 28600 nM in assay [4]; 2010 nM in assay [5].

Regarding `OC[C@@H]1[C@@H](O)[C@H](O)[C@@H](O)CN1CCCCCCNc1cc(Cl)cc(-c2cnccn2)c1` [Compound 1196, (2R,3R,4R,5S)-1-(6-{[3-chloro-5-(pyrazin-2-yl)phenyl]amino}hexyl)-2-(hydroxymethyl)piperidine-3,4,5-triol], the concentration for half-maximal inhibition (IC50) is 2 nM in assay [1]; 10 nM in assay [2]; 2 nM in assay [3]; 773 nM in assay [4]; 175 nM in assay [5].

Take `COc1cc(NCCCCCCN2C[C@H](O)[C@@H](O)[C@H](O)[C@H]2CO)cc(-c2cnccn2)c1` [Compound 1197, (2R,3R,4R,5S)-2-(hydroxymethyl)-1-(6-{[3-methoxy-5-(pyrazin-2-yl)phenyl]amino}hexyl)piperidine-3,4,5-triol]: the IC50 in assay [1] was 1 nM; in assay [2], 37 nM; in assay [3], 9 nM; in assay [4], 2070 nM; in assay [5], 177 nM.

`OC[C@@H]1[C@@H](O)[C@H](O)[C@@H](O)CN1CCCCCCNc1ccc(-c2cnccn2)cc1Cl` [Compound 1198, (2R,3R,4R,5S)-1-(6-{[2-chloro-4-(pyrazin-2-yl)phenyl]amino}hexyl)-2-(hydroxymethyl)piperidine-3,4,5-triol]: the IC50 was 17 nM in assay [1]; 47 nM in assay [2]; under 1 nM in assay [3]; 2700 nM in assay [4]; 1 nM in assay [5].

For the compound `COc1cc(-c2cnccn2)ccc1NCCCCCCN1C[C@H](O)[C@@H](O)[C@H](O)[C@H]1CO` [Compound 1199, (2R,3R,4R,5S)-2-(hydroxymethyl)-1-(6-{[2-methoxy-4-(pyrazin-2-yl)phenyl]amino}hexyl)piperidine-3,4,5-triol], the concentration for half-maximal inhibition (IC50) in assay [1] was found to be 12 nM; in assay [2] it was 43 nM; in assay [3], 8 nM; in assay [4], 3960 nM; in assay [5] it was 16 nM.
